One experiment has as its system DLD1 WT cells. Description: 7-day cell viability assay (CellTiter-Glo), DLD1 parental (WT). The format is cell-based, human. Particulars: n=2. In general terms: Cellular ATP, detected with luciferase, serves as a proxy for viable cell number.
The test system of another experiment is DLD1 BRCA2 (−/−) cells. Description: 7-day cell viability assay (CellTiter-Glo), DLD1 BRCA2 (−/−). The format is cell-based, human. The settings on record: n=2, read-out: Viability IC50 (uM) DLD1 BRCA2 null. In short, it runs like this:
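7-day growth assay in DLD1 cells with or without BRCA2; seeding densities chosen to keep log-linear growth. Compound: 10 uM top, 3-fold, 9 points. Endpoint: CTG ATP luminescence at RT.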

The target in experiment [1] is biotinylated Avi-POLθ[2-894] (Homo sapiens (Human), UniProt O75417). Nature of the experiment: POLθ ATPase assay (ADP-Glo). The settings on record: n=2, read-out: Biochemical ATPase ADPGlo IC50. On the technique in general: ADP-Glo first removes unused ATP, then detects ADP through luciferase.
biotinylated Avi-POLθ[2-894], sequence (O75417 2-894): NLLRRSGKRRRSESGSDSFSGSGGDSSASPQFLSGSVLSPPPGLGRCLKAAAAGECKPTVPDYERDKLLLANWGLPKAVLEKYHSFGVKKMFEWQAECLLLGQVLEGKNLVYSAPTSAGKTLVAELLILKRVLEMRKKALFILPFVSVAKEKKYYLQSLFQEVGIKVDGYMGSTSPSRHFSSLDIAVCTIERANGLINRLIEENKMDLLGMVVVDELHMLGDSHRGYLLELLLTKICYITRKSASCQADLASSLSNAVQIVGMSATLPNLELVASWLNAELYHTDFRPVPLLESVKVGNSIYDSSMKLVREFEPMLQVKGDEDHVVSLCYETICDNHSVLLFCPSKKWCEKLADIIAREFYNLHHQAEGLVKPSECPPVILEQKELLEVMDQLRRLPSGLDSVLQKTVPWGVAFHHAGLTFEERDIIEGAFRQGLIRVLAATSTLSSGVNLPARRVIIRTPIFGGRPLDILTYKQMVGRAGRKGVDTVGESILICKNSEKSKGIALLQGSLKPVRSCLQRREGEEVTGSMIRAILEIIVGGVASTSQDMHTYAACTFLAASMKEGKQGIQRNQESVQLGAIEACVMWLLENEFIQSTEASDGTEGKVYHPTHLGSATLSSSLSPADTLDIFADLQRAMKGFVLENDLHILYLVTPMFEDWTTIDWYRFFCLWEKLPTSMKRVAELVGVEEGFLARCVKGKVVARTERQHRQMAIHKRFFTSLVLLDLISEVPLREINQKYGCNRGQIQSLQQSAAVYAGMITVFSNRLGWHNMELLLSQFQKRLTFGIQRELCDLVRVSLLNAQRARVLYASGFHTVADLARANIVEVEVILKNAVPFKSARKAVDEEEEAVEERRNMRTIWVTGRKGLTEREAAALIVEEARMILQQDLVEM
[2] abbreviates: Homo sapiens, DLD-1, 168 h, 7-day viability.
Where [3] appears, read: Homo sapiens, DLD-1, 168 h, 7-day CellTiter-Glo.

Read-outs that look alike come from different tables or passages of the source.

Regarding `COc1cnc(Cl)cc1-c1cc(C)ncc1C(=O)Nc1nc2c(s1)CN(C(=O)[C@H]1C[C@@H](C#N)C1)C2` [Example 190], the IC50 (in general, the concentration that gives 50% inhibition) with DLD1 WT cells (setting [2]) is at least 10 µM; with DLD1 BRCA2 (−/−) cells (setting [2]), 0.25 to 0.5 µM; in experiment [1] it was 0.001 to 0.015 µM.
Taken in the same sequence, the figures for `COc1cnc(Cl)cc1-c1cc(C)ncc1C(=O)Nc1nc2c(s1)CN(C(=O)c1c(C)cnn1C)C2` [Example 81, 2′-chloro-N-(5-(1,4-dimethyl-1H-pyrazole-5-carbonyl)-5,6-dihydro-4H-pyrrolo[3,4-d]thiazol-2-yl)-5′-methoxy-6-methyl-[4,4′-bipyridine]-3-carboxamide] were at least 10 µM, 0.001 to 0.1 µM and 0.001 to 0.015 µM.
For the compound `COc1cc(Cl)c(C(=O)N2Cc3nc(NC(=O)c4cnc(C)cc4-c4cc(Cl)ncc4OC)sc3C2)cn1`, the IC50 in the experiment on DLD1 WT cells (setting [3]) was at least 10 µM; with DLD1 BRCA2 (−/−) cells (setting [3]), 0.001 to 0.1 µM; in experiment [1] (POLθ ATPase, ADP-Glo), 0.001 to 0.015 µM.
As to `COc1cnc(Cl)cc1-c1cc(C)ncc1C(=O)Nc1nc2c(s1)CN(C(=O)c1cc(C)n(C(F)F)n1)C2` [Example 52, 2′-chloro-N-(5-(1-(difluoromethyl)-5-methyl-1H-pyrazole-3-carbonyl)-5,6-dihydro-4H-pyrrolo[3,4-d]thiazol-2-yl)-5′-methoxy-6-methyl-[4,4′-bipyridine]-3-carboxamide], the results for the IC50 (in the experiment on DLD1 WT cells (setting [2]); in the experiment on DLD1 BRCA2 (−/−) cells (setting [2]); in experiment [1]) were at least 10 µM, 0.001 to 0.1 µM and 0.001 to 0.015 µM, respectively.
Taken in the same sequence, the figures for `COc1ccc(C#N)cc1-c1cc(C)ncc1C(=O)Nc1nc2c(s1)CN(C(=O)c1ccncc1)C2` were at least 10 µM, at least 2 µM and 0.001 to 0.015 µM.
In the case of `COc1cnc(Cl)cc1-c1cc(C)ncc1C(=O)Nc1nc2c(s1)CN(C(=O)c1ccncc1)C2`, the IC50 with DLD1 WT cells (setting [2]) was at least 10 µM; in the experiment on DLD1 BRCA2 (−/−) cells (setting [2]), 0.25 to 0.5 µM; in experiment [1], 0.001 to 0.015 µM.
For `COc1cnc(Cl)cc1-c1cc(C)ncc1C(=O)Nc1nc2c(s1)CN(C(=O)C1CCC(C(F)F)CC1)C2` (stereo not drawn) [Example 406, (Cis and trans) 2′-chloro-N-(5-(4-(difluoromethyl)cyclohexane-1-carbonyl)-5,6-dihydro-4H-pyrrolo[3,4-d]thiazol-2-yl)-5′-methoxy-6-methyl-[4,4′-bipyridine]-3-carboxamide], the IC50 was at least 10 µM with DLD1 WT cells (setting [3]); 0.001 to 0.1 µM in the experiment with DLD1 BRCA2 (−/−) cells (setting [3]); 0.001 to 0.015 µM in experiment [1] (POLθ ATPase, ADP-Glo).
Turning to `COc1cnc(Cl)cc1-c1cc(C)ncc1C(=O)Nc1nc2c(s1)CN(C(=O)c1ncc(C)o1)C2` [Example 45, 2′-chloro-5′-methoxy-6-methyl-N-(5-(5-methyloxazole-2-carbonyl)-5,6-dihydro-4H-pyrrolo[3,4-d]thiazol-2-yl)-[4,4′-bipyridine]-3-carboxamide], the IC50 fell in the range of 2 to 5 µM in the experiment with DLD1 WT cells (setting [2]), 0.001 to 0.1 µM in the experiment on DLD1 BRCA2 (−/−) cells (setting [2]) and 0.001 to 0.015 µM in experiment [1].
Taken in the same sequence, the figures for `COc1ccc(C#N)cc1-c1cc(C)ncc1C(=O)Nc1nc2c(s1)CN(S(=O)(=O)NCC(C)C)C2` were at least 10 µM, 0.5 to 2 µM and 0.001 to 0.015 µM.
`COc1ccc(C#N)cc1-c1cc(C)ncc1C(=O)Nc1nc2c(s1)CN(C(=O)c1cc(C)ccn1)C2`: the half-maximal inhibitory concentration (IC50) is at least 10 µM in the experiment with DLD1 WT cells (setting [2]), 0.5 to 2 µM in the experiment with DLD1 BRCA2 (−/−) cells (setting [2]) and 0.001 to 0.015 µM in experiment [1].
Taken in the same sequence, the figures for `COc1cnc(Cl)cc1-c1cc(C)ncc1C(=O)Nc1nc2c(s1)CN(C(=O)c1nn(C)c(C)c1Cl)C2` [Example 74, 2′-chloro-N-(5-(4-chloro-1,5-dimethyl-1H-pyrazole-3-carbonyl)-5,6-dihydro-4H-pyrrolo[3,4-d]thiazol-2-yl)-5′-methoxy-6-methyl-[4,4′-bipyridine]-3-carboxamide] were 0.001 to 0.5 µM, 0.001 to 0.1 µM and 0.001 to 0.015 µM.
For the compound `COc1cnc(Cl)cc1-c1cc(C)ncc1C(=O)Nc1nc2c(s1)CN(C(=O)c1ccc(C(F)F)nc1Cl)C2`, the half-maximal inhibitory concentration (IC50) is at least 10 µM in the experiment with DLD1 WT cells (setting [3]); 0.001 to 0.1 µM in the experiment on DLD1 BRCA2 (−/−) cells (setting [3]); 0.001 to 0.015 µM in experiment [1] (POLθ ATPase, ADP-Glo).
`COc1cnc(Cl)cc1-c1cc(C)ncc1C(=O)Nc1nc2c(s1)CN(C(=O)c1cnccc1Cl)C2` [Example 19, 2′-chloro-N-(5-(4-chloronicotinoyl)-5,6-dihydro-4H-pyrrolo[3,4-d]thiazol-2-yl)-5′-methoxy-6-methyl-[4,4′-bipyridine]-3-carboxamide]: the IC50 in the experiment with DLD1 WT cells (setting [2]) is at least 10 µM; in the experiment on DLD1 BRCA2 (−/−) cells (setting [2]), 0.001 to 0.1 µM; in experiment [1], 0.001 to 0.015 µM.
Taken in the same sequence, the figures for `COc1ccccc1-c1cc(C)ncc1C(=O)Nc1nc2c(s1)CN(C(=O)C1CC1)CC2` were 0.5 to 2 µM, at least 2 µM and at least 0.9 µM.
Take `COc1cnc(Cl)cc1-c1cc(C)ncc1C(=O)Nc1nc2c(s1)CN(C(=O)c1ccc(C(F)F)cn1)C2` [Example 9, 2′-chloro-N-(5-(5-(difluoromethyl)picolinoyl)-5,6-dihydro-4H-pyrrolo[3,4-d]thiazol-2-yl)-5′-methoxy-6-methyl-[4,4′-bipyridine]-3-carboxamide]: the IC50 in the experiment on DLD1 WT cells (setting [2]) was at least 10 µM; with DLD1 BRCA2 (−/−) cells (setting [2]), 0.001 to 0.1 µM; in experiment [1], 0.001 to 0.015 µM.
On to `COc1cnc(Cl)cc1-c1cc(C)ncc1C(=O)Nc1nc2c(s1)CN(C(=O)c1c(C(F)F)cnn1C)C2` (racemic), for which the IC50 with DLD1 WT cells (setting [2]) is at least 10 µM; in the experiment with DLD1 BRCA2 (−/−) cells (setting [2]), 0.001 to 0.1 µM; in experiment [1] it was 0.001 to 0.015 µM.
Take “2′-chloro-N-(5-(6- (difluoromethoxy)nicotinoyl)-5,6- dihydro-4H-pyrrolo[3,4-d]thiazol-2-yl)- 5′-methoxy-6-methyl-[4,4′-bipyridine]- 3-carboxamide [Example 32]”: the IC50 fell in the range of 2 to 5 µM with DLD1 WT cells (7-day viability), 0.001 to 0.1 µM in the experiment on DLD1 BRCA2 (−/−) cells (7-day viability) and 0.001 to 0.015 µM in experiment [1].
With `COc1cnc(Cl)cc1-c1cc(C)ncc1C(=O)Nc1nc2c(s1)CN(C(=O)c1cnn(C(F)F)c1)C2` (racemic), the IC50 in the experiment on DLD1 WT cells (setting [2]) is 0.001 to 0.5 µM; in the experiment with DLD1 BRCA2 (−/−) cells (setting [2]) it was 0.001 to 0.1 µM; in experiment [1], 0.001 to 0.015 µM.
As for `COc1cnc(Cl)cc1-c1cc(C)ncc1C(=O)Nc1nc2c(s1)CN(C(=O)c1ccc(F)c(C(F)F)c1)C2`, the IC50 in the experiment on DLD1 WT cells (setting [3]) lay within 5 to 10 µM; with DLD1 BRCA2 (−/−) cells (setting [3]) it was 0.001 to 0.1 µM; in experiment [1] (POLθ ATPase, ADP-Glo), 0.001 to 0.015 µM.
For `COc1cnc(Cl)cc1-c1cc(C)ncc1C(=O)Nc1nc2c(s1)CN(C(=O)c1nn(C)cc1Cl)C2` (racemic) [Example 152, (Racemic)-4-(5-Cyano-2-methoxyphenyl)-6-methyl-N-(6-(phenylamino)-4,5,6,7-tetrahydrobenzo[d]thizaol-2-yl)nicotinamide], the IC50 in the experiment on DLD1 WT cells (setting [2]) was at least 10 µM; in the experiment with DLD1 BRCA2 (−/−) cells (setting [2]) it was 0.1 to 0.25 µM; in experiment [1], 0.001 to 0.015 µM.
Turning to `COc1cnc(Cl)cc1-c1cc(C)ncc1C(=O)Nc1nc2c(s1)CN(C(=O)c1cnc(C(F)(F)F)cn1)C2`, the IC50 was at least 10 µM in the experiment with DLD1 WT cells (setting [3]); 0.001 to 0.1 µM in the experiment with DLD1 BRCA2 (−/−) cells (setting [3]); 0.001 to 0.015 µM in experiment [1] (POLθ ATPase, ADP-Glo).
With `COc1cnc(Cl)cc1-c1cc(C)ncc1C(=O)Nc1nc2c(s1)CN(C(=O)c1ncccc1OC(F)F)C2` [Example 145], the IC50 with DLD1 WT cells (setting [2]) is at least 10 µM; with DLD1 BRCA2 (−/−) cells (setting [2]) it was 0.001 to 0.1 µM; in experiment [1], 0.001 to 0.015 µM.
On the same counts, the results for `COc1cnc(Cl)cc1-c1cc(C)ncc1C(=O)Nc1nc2c(s1)CN(C(=O)c1ncccc1OC)C2` [Example 169] are at least 10 µM, 0.1 to 0.25 µM and 0.001 to 0.015 µM.
In the case of `COc1cnc(Cl)cc1-c1cc(C)ncc1C(=O)Nc1nc2c(s1)CN(C(=O)c1nc3ccccc3o1)C2`, the IC50 with DLD1 WT cells (setting [3]) was at least 10 µM; with DLD1 BRCA2 (−/−) cells (setting [3]), 0.001 to 0.1 µM; in experiment [1] (POLθ ATPase, ADP-Glo), 0.001 to 0.015 µM.

(Values after patent publication US20250230171A1 (MOMA Therapeutics, Inc., priority 2023, published 2025).)
